Measurements reported in patent US20250236589A1, “THERAPEUTIC PHENETHYLAMINE COMPOSITIONS AND METHODS OF USE” (Cybin IRL Limited, priority 2022, published 2025).
Read-outs that look alike come from different tables or passages of the source.

Experiments:
[1] = tested on: 5-HT7 (h) (subtype “a” or “b” not specified); assay: Off-target screen, radioligand displacement at 10 μM; format: binding, human; details: agonist radioligand
[2] = tested on: Calcium Channel L-Type, Phenylalkylamine, verapamil site (rat cortex); assay: as above; format: binding; details: antagonist radioligand
[3] = tested on: C57BL/6J mice; assay: HTR time course after s.c. administration in C57BL/6J mice; format: in vivo, mouse
Procedure: 5-HT2 agonist activity and relative duration of action in vivo of test compounds were assessed using the HTR assay in male, adult C57BL/6J mice (Jackson Laboratories). Mice were housed in standard laboratory cages with ad libitum access to food and water, and were acclimated to the vivarium for at least one week prior to testing in a procedure room. On the day of testing, mice were acclimated to the procedure room in their home cages for ≥60 min before administration of test compounds. Mice were injected subcutaneously, placed immediately thereafter in a clear, polycarbonate box (46×20×20 cm), and HTRs were counted at 5, 10, 15, 40, 120, 160, 200, 240, 280, 320, 360, and 1440 min, using hand-held tally counters, by two trained observers who were blind to treatment.

[4] = molecular target: T1, human alpha2A receptor (Homo sapiens (Human), UniProt P08913); assay: alpha2A receptor function; format: cell-based
[5] = molecular target: 5-HT2A receptor (Homo sapiens (Human), UniProt P28223); assay: 5-HT2A radioligand binding ([125I](±)DOI)
[6] = molecular target: T1, human alpha2A receptor; assay: alpha2A receptor binding ([3H]rauwolscine)
[7] = molecular target: MAO-A (Homo sapiens (Human), UniProt P21397); assay: Recombinant human MAO-A activity (stability); format: in vitro ADME; details: hrMAO 0.02 mg/mL, read-out: MAO-A, t1/2
Procedure: hrMAO-A and MAO control were purchased from XenoTech. The reaction mixture was prepared as described below. The test compound was added into the reaction mixture at a final concentration of 1 μM or co-dosed with their deuterated analog at 1 μM each. The positive control kynuramine (25 μM) was run simultaneously with the test compound in a separate reaction. The reaction mixture (without test compounds or kynuramine) was equilibrated in a shaking water bath at 37° C. for 5 minutes. The reaction was initiated by the addition of the test compound or kynuramine, and the mixture was incubated in a shaking water bath at 37° C. Aliquots (150 μL) of the test compound reaction mixture were withdrawn at 0, 5, 10, 20, 30, 60, and 120 minutes. Aliquots (150 μL) of the positive control reaction mixture were withdrawn at 0 and 30 minutes. Test compound(s) and kynuramine samples were immediately combined with 150 μL of ice-cold 100% acetonitrile containing 0.1% formic acid and internal standard (0.2 μM metoprolol) to terminate the reaction. The samples were then mixed and centrifuged to precipitate proteins. All samples were assayed by LC-MS/MS. The peak area response ratio (PARR) of analyte to internal standard at each time point was compared to the PARR at time 0 to determine the percent remaining at each time point. Half-lives were calculated using GraphPad software, fitting to a single-phase exponential decay equation.

[8] = In vitro liver microsome stability (MsLM); format: in vitro ADME; details: mouse, mouse liver microsomes, 0.5 mg/mL microsomes, NADPH, read-out: MsLM, t1/2
Procedure: In vitro stability was determined in Human (HLM), Rat (RLM), Mouse (MsLM), and dog (DLM) Liver Microsomes. All liver microsomes were purchased from a commercial supplier (e.g. XenoTech). The reaction mixture, minus NADPH, was prepared as described below. The test compound was added into the reaction mixture at a final concentration of 1 μM or co-dosed with their deuterated analog(s) at 1 μM each. The control compound, testosterone, was run simultaneously with the test compound in a separate reaction. The reaction mixture (without cofactor) was equilibrated in a shaking water bath at 37° C. for 5 minutes. The reaction was initiated by the addition of the cofactor, and the mixture was incubated in a shaking water bath at 37° C. Aliquots (150 μL) were withdrawn at 0, 5, 10, 20, 30, 60, and 120 minutes. Test compound and testosterone samples were immediately combined with 150 μL of ice-cold acetonitrile (ACN) containing 0.1% formic acid and internal standard to terminate the reaction. The samples were then mixed and centrifuged to precipitate proteins. All samples were assayed by LC-MS/MS using electrospray ionization. […] Half-lives were calculated using GraphPad software, fitting to a single-phase exponential decay equation.

[9] = PK profile in C57BL/6J mice (plasma, brain); format: in vivo, mouse; details: for Kp / half-life / AUC(0-t) / Cmax / MRT last / Tmax / AUC(0-inf): male, C57BL/6J, mouse; for Kp: brain/plasma, read-out: Brain/Plasma ratio (AUCINF); for AUC(0-inf): read-out: AUCINF—obs
Procedure: PK Profile in Mice. To evaluate the full PK profile for I-1 in mice, plasma and brain samples were determined in male C57BL/6J mice following subcutaneous (s.c.) and oral (p.o.) administration at 3 mg/kg (see Table 7 and FIGS. 54A and 54B). In a typical experiment, blood was collected via cardiac puncture (N=3 animals per time point, 9 time points) up to 24 hours post dose. Plasma and brain concentrations were determined using LC-MS/MS and PK parameters were determined using a non-compartmental analysis (NCA) using Phoenix WinNonlin Pro (v8.3.1, Pharsight, Inc, USA) software.

[10] = Plasma and brain concentrations after dosing in mice (screening); format: in vivo, mouse; details: for concentration at 160 min: sc, mice, 3 mg/kg s.c.

T1 sequence (P08913 whole entry): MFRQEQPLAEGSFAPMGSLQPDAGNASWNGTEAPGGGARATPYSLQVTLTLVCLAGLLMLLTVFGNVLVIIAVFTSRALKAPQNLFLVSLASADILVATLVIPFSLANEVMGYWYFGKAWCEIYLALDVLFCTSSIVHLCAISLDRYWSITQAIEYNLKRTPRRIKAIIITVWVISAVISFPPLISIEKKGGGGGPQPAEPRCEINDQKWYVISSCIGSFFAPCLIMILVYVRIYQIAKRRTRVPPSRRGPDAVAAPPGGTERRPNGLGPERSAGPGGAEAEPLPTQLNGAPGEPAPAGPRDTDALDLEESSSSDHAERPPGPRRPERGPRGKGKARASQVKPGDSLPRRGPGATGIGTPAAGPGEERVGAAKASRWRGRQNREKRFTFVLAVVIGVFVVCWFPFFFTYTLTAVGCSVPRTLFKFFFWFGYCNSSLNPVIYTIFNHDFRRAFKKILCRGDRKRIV
Chain of MAO-A (P21397 whole entry, looked up): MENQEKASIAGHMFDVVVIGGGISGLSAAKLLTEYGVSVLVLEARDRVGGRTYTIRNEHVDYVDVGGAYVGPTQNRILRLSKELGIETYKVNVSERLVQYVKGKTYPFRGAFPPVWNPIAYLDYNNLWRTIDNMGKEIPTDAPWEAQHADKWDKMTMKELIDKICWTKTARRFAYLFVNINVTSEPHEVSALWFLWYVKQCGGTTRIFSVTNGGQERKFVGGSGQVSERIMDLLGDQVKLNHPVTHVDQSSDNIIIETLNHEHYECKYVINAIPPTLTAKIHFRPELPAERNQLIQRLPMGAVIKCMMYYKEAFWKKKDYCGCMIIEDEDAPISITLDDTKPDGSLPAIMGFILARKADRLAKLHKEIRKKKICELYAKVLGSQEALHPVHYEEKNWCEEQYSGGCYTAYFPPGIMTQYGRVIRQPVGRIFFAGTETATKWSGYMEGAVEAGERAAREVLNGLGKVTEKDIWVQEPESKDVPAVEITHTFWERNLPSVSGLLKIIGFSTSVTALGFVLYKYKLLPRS

COc1cc(CC(C)N)c(OC)cc1I (racemic) [DOI, (±)-2,5-dimethoxy-4-iodoamphetamine, reference compound]
inhibition at 10 µM [1]: 58.4% inhibition at 10 μM
inhibition at 10 µM [2]: 55.5% inhibition at 10 μM

COc1cc(SC(F)(F)F)c(OC)cc1CCN [Compound I-1, 2-(2,5-dimethoxy-4-((trifluoromethyl)thio)phenyl)ethan-1-amine]
HTR, dose-response ([3]; 0.1, 0.3, 1, 3 mg/kg s.c.): robust dose-dependent HTR
HTR duration versus DOI ([3]; DOI 1 mg/kg s.c.): persisted longer
EC50 [4]: 165 nM
inhibition at 10 µM [5]: > 80%
binding selectivity for 5-HT2A over 5-HT2B ([5]; Ki, [125I]DOI): ~19 fold
Ki ([5]; radioligand [125I](±)DOI): 0.35 nM
Ki [6]: 66 nM
half-life at 1 μM [7]: > 2 h
half-life at 1 μM [8]: > 2 h
AUCINF ([9]; brain, p.o. 3 mg/kg): 16171 ng·h/g
T1/2 ([9]; brain, p.o. 3 mg/kg): 2.73 h
peak brain concentration ([9]; brain, p.o. 3 mg/kg): 2366 ng/g
AUCINF ([9]; brain, s.c. 3 mg/kg): 22487 ng·h/g
T1/2 ([9]; brain, s.c. 3 mg/kg): 3.15 h
peak brain concentration ([9]; brain, s.c. 3 mg/kg): 3165 ng/g
Kp ([9]; po, p.o. 3 mg/kg): 25.8
Kp ([9]; sc, s.c. 3 mg/kg): 30.7
half-life ([9]; plasma and brain, other: subcutaneous and oral (range over both routes), 3 mg/kg, across route of administration and tissue, read-out: elimination T1/2): 2.73 to 3.92 h
AUC(0-t) ([9]; po, brain, p.o. 3 mg/kg): 16100 ng·h/mL
Cmax ([9]; po, brain, p.o. 3 mg/kg): 2370 ng/mL
MRT last ([9]; po, brain, p.o. 3 mg/kg): 5.35 h
Tmax ([9]; po, brain, p.o. 3 mg/kg): 1 h
AUC(0-inf) ([9]; po, brain, p.o. 3 mg/kg): 16200 ng·h/mL
half-life ([9]; po, brain, p.o. 3 mg/kg, read-out: T1/2 (converted)): 2.73 h
AUC(0-t) ([9]; po, plasma, p.o. 3 mg/kg): 625 ng·h/mL
Cmax ([9]; po, plasma, p.o. 3 mg/kg): 175 ng/mL
MRT last ([9]; po, plasma, p.o. 3 mg/kg): 3.01 h
Tmax ([9]; po, plasma, p.o. 3 mg/kg): 1 h
AUC(0-inf) ([9]; po, plasma, p.o. 3 mg/kg): 784 ng·h/mL
half-life ([9]; po, plasma, p.o. 3 mg/kg, read-out: T1/2 (converted)): 3.3 h
AUC(0-t) ([9]; sc, brain, s.c. 3 mg/kg): 22500 ng·h/mL
Cmax ([9]; sc, brain, s.c. 3 mg/kg): 3160 ng/mL
MRT last ([9]; sc, brain, s.c. 3 mg/kg): 4.89 h
Tmax ([9]; sc, brain, s.c. 3 mg/kg): 2 h
AUC(0-inf) ([9]; sc, brain, s.c. 3 mg/kg): 22500 ng·h/mL
half-life ([9]; sc, brain, s.c. 3 mg/kg, read-out: T1/2 (converted)): 3.15 h
AUC(0-t) ([9]; sc, plasma, s.c. 3 mg/kg): 731 ng·h/mL
Cmax ([9]; sc, plasma, s.c. 3 mg/kg): 188 ng/mL
MRT last ([9]; sc, plasma, s.c. 3 mg/kg): 2.96 h
Tmax ([9]; sc, plasma, s.c. 3 mg/kg): 0.08 h
AUC(0-inf) ([9]; sc, plasma, s.c. 3 mg/kg): 1000 ng·h/mL
half-life ([9]; sc, plasma, s.c. 3 mg/kg, read-out: T1/2 (converted)): 3.92 h
% Frelative po (AUCINF) ([9]; plasma, oral relative to subcutaneous): 78.3%
T1/2 ([9]; plasma, s.c. 3 mg/kg): 3.92 h
brain/plasma ratio, 160 min ([10]; 160 min after 3 mg/kg): 32.4
concentration at 160 min ([10]; mouse, brain, read-out: Brain, 160 min): 9.6 µM
Kp at 160 min ([10]; mouse, brain/plasma, subcutaneous, 3 mg/kg, 160 min after 3 mg/kg, read-out: brain/plasma ratio, 160 min): 24 to 32
concentration at 160 min ([10]; mouse, plasma, read-out: Plasma, 160 min): 0.3 µM
